d = 2'-deoxy (DNA); r = 2'-OH (RNA)
Test system: LHPP gene
Assay: High-throughput screening of saRNAs targeting LHPP promoter: LHPP mRNA by one-step RT-qPCR in Huh7 cells
Type: cell-based, human
Details: 10 nM saRNA, 72 hours, relative to control (Mock)
Method: Human liver cancer cell line Huh7 was cultured in DMEM medium (Gibco), containing 10% of calf serum (Sigma-Aldrich) and 1% of penicillin/streptomycin (Gibco). The cells were cultured at 5% CO2 and 37° C. According to the instructions provided by the manufacturer, RNAiMax (Invitrogen, Carlsbad, Calif.) was used to transfect small activating RNAs at a concentration of 10 nM (unless otherwise specified).
At the end of transfection, the media were discarded, and each well was washed with 150 μL of PBS once. After discarding the PBS, 50 μL of cell lysis buffer (Takara) was added to each well and incubated at room temperature for 5 min. 1 μL of the resulted cell lysis was taken from each well and analyzed by qPCR on an ABI 7500 fast real-time PCR system (Applied Biosystems) using a one-step TB Green™ PrimeScrip™ RT-PCR kit II (Takara, RR086A) Each transfection sample was repeatedly amplified in 3 replicate wells.
Reaction conditions were as follows: reverse transcription reaction (stage 1): 5 min at 42° C., 10 s at 95° C.; PCR reaction (stage 2): 5 s at 95° C., 20 s at 60° C., 45 cycles of amplification. HPRT1 and TBP were used as internal reference genes. PCR primers used for amplifying LHPP, HPRT1 and TBP genes are shown in Table 2, wherein LHPP was amplified using the LHPP F1/R1 primer pair.
To calculate the relative expression level (Erel) of LHPP (target gene) in an saRNA-transfected sample relative to control treatment (Mock), the Ct values of the target gene and the two internal reference genes were substituted into formula 1
Erel=2^(CtT^m^-CtT^s^)/((2^(CtR1^m^-CtR1^s^)*2^(CtR2^m^-CtR2^s^))^(1/2))
wherein CtTm was the Ct value of the target gene from the control (Mock) sample; CtTs was the Ct value of the target gene from the saRNA-treated sample; CtR1m was the Ct value of the internal reference gene 1 from the control (Mock) sample; CtR1s was the Ct value of the internal reference gene 1 from the saRNA-treated sample; CtR2m was the Ct value of the internal reference gene 2 from the control (Mock) sample; and CtR2s was the Ct value of the internal reference gene 2 from the saRNA-treated sample.
In order to obtain saRNAs capable of activating LHPP transcription, Huh7 cells were transfected with each of the aforementioned 290 saRNAs with a transfection concentration of 10 nM, and 72 hours later, according to the same method as described above, the cells were lysed and analyzed by one-step RT-qPCR to obtain the relative (compared with the control (Mock)) expression level of LHPP gene for each saRNA-treated sample. […] The observed maximum activation and maximum inhibition is 3.46 fold and 0.49 fold, respectively, saRNAs with activating activity are referred to as activating saRNAs, and the saRNAs with inhibiting activity are referred to as inhibiting saRNAs.

Substance	Fold of changes in relative LHPP mRNA expression level [fold]	Fold of changes in relative LHPP mRNA expression level (log2)
RAG7-138: saRNA duplex; sense UUCCUGCUCUUUGUCCGCUTT (SEQ ID NO: 53), antisense AGCGGACAAAGAGCAGGAATT (SEQ ID NO: 217) (sugars from the 5' end r19 d2, backbone not given here)	1.36	0.45
RAG7-139: saRNA duplex; sense UUUCCUGCUCUUUGUCCGCTT (SEQ ID NO: 7), antisense GCGGACAAAGAGCAGGAAATT (SEQ ID NO: 171) (sugars from the 5' end r19 d2, backbone not given here)	1.73	0.79
RAG7-140: saRNA duplex; sense UUUUCCUGCUCUUUGUCCGTT (SEQ ID NO: 74), antisense CGGACAAAGAGCAGGAAAATT (SEQ ID NO: 238) (sugars from the 5' end r19 d2, backbone not given here)	1.28	0.36
RAG7-142: saRNA duplex; sense GCUUUUCCUGCUCUUUGUCTT (SEQ ID NO: 164), antisense GACAAAGAGCAGGAAAAGCTT (SEQ ID NO: 328) (sugars from the 5' end r19 d2, backbone not given here)	1.10	0.14
RAG7-143: saRNA duplex; sense UGCUUUUCCUGCUCUUUGUTT (SEQ ID NO: 102), antisense ACAAAGAGCAGGAAAAGCATT (SEQ ID NO: 266) (sugars from the 5' end r19 d2, backbone not given here)	1.21	0.28
RAG7-144: saRNA duplex; sense CUGCUUUUCCUGCUCUUUGTT (SEQ ID NO: 18), antisense CAAAGAGCAGGAAAAGCAGTT (SEQ ID NO: 182) (sugars from the 5' end r19 d2, backbone not given here)	1.56	0.64
RAG7-145: saRNA duplex; sense UCUGCUUUUCCUGCUCUUUTT (SEQ ID NO: 9), antisense AAAGAGCAGGAAAAGCAGATT (SEQ ID NO: 173) (sugars from the 5' end r19 d2, backbone not given here)	1.71	0.77
RAG7-146: saRNA duplex; sense UUCUGCUUUUCCUGCUCUUTT (SEQ ID NO: 10), antisense AAGAGCAGGAAAAGCAGAATT (SEQ ID NO: 174) (sugars from the 5' end r19 d2, backbone not given here)	1.69	0.76
RAG7-147: saRNA duplex; sense UUUCUGCUUUUCCUGCUCUTT (SEQ ID NO: 66), antisense AGAGCAGGAAAAGCAGAAATT (SEQ ID NO: 230) (sugars from the 5' end r19 d2, backbone not given here)	1.31	0.39
RAG7-148: saRNA duplex; sense UUUUCUGCUUUUCCUGCUCTT (SEQ ID NO: 67), antisense GAGCAGGAAAAGCAGAAAATT (SEQ ID NO: 231) (sugars from the 5' end r19 d2, backbone not given here)	1.30	0.38
RAG7-149: saRNA duplex; sense GUUUUCUGCUUUUCCUGCUTT (SEQ ID NO: 99), antisense AGCAGGAAAAGCAGAAAACTT (SEQ ID NO: 263) (sugars from the 5' end r19 d2, backbone not given here)	1.22	0.29
RAG7-150: saRNA duplex; sense UGUUUUCUGCUUUUCCUGCTT (SEQ ID NO: 32), antisense GCAGGAAAAGCAGAAAACATT (SEQ ID NO: 196) (sugars from the 5' end r19 d2, backbone not given here)	1.48	0.56
RAG7-151: saRNA duplex; sense UUGUUUUCUGCUUUUCCUGTT (SEQ ID NO: 100), antisense CAGGAAAAGCAGAAAACAATT (SEQ ID NO: 264) (sugars from the 5' end r19 d2, backbone not given here)	1.22	0.28
RAG7-160: saRNA duplex; sense CUUAGGGACUUGUUUUCUGTT (SEQ ID NO: 153), antisense CAGAAAACAAGUCCCUAAGTT (SEQ ID NO: 317) (sugars from the 5' end r19 d2, backbone not given here)	1.11	0.15
RAG7-162: saRNA duplex; sense UUCUUAGGGACUUGUUUUCTT (SEQ ID NO: 19), antisense GAAAACAAGUCCCUAAGAATT (SEQ ID NO: 183) (sugars from the 5' end r19 d2, backbone not given here)	1.56	0.64
RAG7-165: saRNA duplex; sense CCUUUCUUAGGGACUUGUUTT (SEQ ID NO: 152), antisense AACAAGUCCCUAAGAAAGGTT (SEQ ID NO: 316) (sugars from the 5' end r19 d2, backbone not given here)	1.11	0.16
RAG7-168: saRNA duplex; sense UGACCUUUCUUAGGGACUUTT (SEQ ID NO: 91), antisense AAGUCCCUAAGAAAGGUCATT (SEQ ID NO: 255) (sugars from the 5' end r19 d2, backbone not given here)	1.24	0.31
RAG7-169: saRNA duplex; sense UUGACCUUUCUUAGGGACUTT (SEQ ID NO: 61), antisense AGUCCCUAAGAAAGGUCAATT (SEQ ID NO: 225) (sugars from the 5' end r19 d2, backbone not given here)	1.34	0.42
RAG7-170: saRNA duplex; sense UUUGACCUUUCUUAGGGACTT (SEQ ID NO: 132), antisense GUCCCUAAGAAAGGUCAAATT (SEQ ID NO: 296) (sugars from the 5' end r19 d2, backbone not given here)	1.16	0.21
RAG7-171: saRNA duplex; sense CUUUGACCUUUCUUAGGGATT (SEQ ID NO: 80), antisense UCCCUAAGAAAGGUCAAAGTT (SEQ ID NO: 244) (sugars from the 5' end r19 d2, backbone not given here)	1.27	0.34
RAG7-172: saRNA duplex; sense CCUUUGACCUUUCUUAGGGTT (SEQ ID NO: 81), antisense CCCUAAGAAAGGUCAAAGGTT (SEQ ID NO: 245) (sugars from the 5' end r19 d2, backbone not given here)	1.27	0.34
RAG7-174: saRNA duplex; sense UGCCUUUGACCUUUCUUAGTT (SEQ ID NO: 49), antisense CUAAGAAAGGUCAAAGGCATT (SEQ ID NO: 213) (sugars from the 5' end r19 d2, backbone not given here)	1.38	0.47

From patent publication US20220096516A1, “OLIGONUCLEOTIDE MOLECULE AND APPLICATION THEREOF IN TUMOR THERAPY” (Ractigen Therapeutics, priority 2019, published 2022)
